Active and inactive are the calls of the source. The calls are words filed in the database; no cut-off is given here.
Tests used:
B16 = assay: Cytotoxicity against Mus musculus (mouse) B16 cells after 72 hr by MTT assay; assay type: cell-based; settings: B16, 72 h
Trypanosoma lewisi = assay: Antiprotozoan activity against Trypanosoma lewisi after 72 hr by MTT assay; assay type: functional, organism-based
L1210 = assay: Cytotoxicity against Mus musculus (mouse) L1210 cells after 72 hr by MTT assay; assay type: cell-based; settings: L1210, 72 h
Giardia intestinalis [1] = assay: Antiprotozoan activity against Giardia intestinalis after 72 hr by MTT assay; assay type: functional, organism-based; settings: Giardia duodenalis
Leishmania tarentolae = assay: Antiprotozoan activity against Leishmania tarentolae after 72 hr by MTT assay; assay type: functional, organism-based
Plasmodium falciparum = assay: Antiprotozoan activity against Plasmodium falciparum assessed as inhibition of [3H]hypoxanthine incorporation incubated for 24 hr prior to [3H]hypoxanthine addition measured after 18 hr by liquid scintillation counting; assay type: functional, organism-based
[2] = Selectivity index, ratio of IC50 for mouse L1210 cells to IC50 for Giardia lamblia
[3] = Selectivity index, ratio of IC50 for mouse B16 cells to IC50 for Leishmania tarentolae; assay type: toxicity, cell-based; settings: B16 cells versus Leishmania tarentolae, read-out: Ratio IC50
[4] = Selectivity index, ratio of IC50 for mouse L1210 cells to IC50 for Leishmania tarentolae; assay type: toxicity, cell-based; settings: L1210 cells versus Leishmania tarentolae, read-out: Ratio IC50
[5] = Selectivity index, ratio of IC50 for mouse B16 cells to IC50 for Trypanosoma lewisi; assay type: toxicity, cell-based; settings: B16 cells versus Trypanosoma lewisi, read-out: Ratio IC50
[6] = Selectivity index, ratio of IC50 for mouse B16 cells to IC50 for Giardia lamblia
[7] = Selectivity index, ratio of IC50 for mouse L1210 cells to IC50 for Trypanosoma lewisi; assay type: toxicity, cell-based; settings: L1210 cells versus Trypanosoma lewisi, read-out: Ratio IC50
Giardia intestinalis [8] = assay: Antiprotozoan activity against Giardia intestinalis assessed as decrease in viability at 12.1 to 21.5 uM after 72 hr by microscopic analysis; assay type: functional, organism-based; settings: Giardia duodenalis

SMILES	IC50 (Trypanosoma lewisi) [µM]	IC50 (Plasmodium falciparum) [µM]	IC50 (B16) [µM]	IC50 (L1210) [µM]	IC50 (Giardia intestinalis [1]) [µM]	IC50 (Leishmania tarentolae) [µM]	Ratio IC50 [2]	selectivity ratio [3]	selectivity ratio [4]	selectivity ratio [5]	Ratio IC50 [6]	selectivity ratio [7]	Activity (Giardia intestinalis [8])
COc1cc(C2=CC(c3ccc([N+](=O)[O-])cc3)NC(=S)N2)cc(OC)c1OC (stereo not drawn)	50	–	–	–	21	13.7	4	8	8	2	4	2	–
COc1ccc(C2=CC(c3ccc(OC)c(OC)c3)NC(S)=N2)cc1 (stereo not drawn)	25.8	31	> 100	> 100	> 100	27.2	–	–	–	–	–	–	–
COc1cc(C2=CC(c3ccc(Cl)cc3)NC(=S)N2)cc(OC)c1OC (stereo not drawn)	27	–	–	–	46.7	10.2	–	–	–	–	–	–	–
COc1ccc(C2C=C(c3cc(OC)c(OC)c(OC)c3)NC(=S)N2)cc1OC (stereo not drawn)	52.1	–	–	–	22.7	36.4	–	–	–	–	–	–	–
COc1ccc(C2C=C(c3cc(OC)c(OC)c(OC)c3)NC(=S)N2)cc1[N+](=O)[O-] (stereo not drawn)	39.5	–	–	–	24.3	12.5	4	8	8	2	4	2	–
COc1ccc(OC)c(C2=CC(c3ccc(OC)c([N+](=O)[O-])c3)NC(=S)N2)c1 (stereo not drawn)	33.3	–	–	–	57.8	21.1	–	–	–	–	–	–	–
COc1ccc(OC)c(C2C=C(c3cc(OC)c(OC)c(OC)c3)NC(=S)N2)c1 (stereo not drawn)	48.4	–	–	–	23.5	30.3	–	–	–	–	–	–	–
COc1cc(OC)c(C2C=C(c3cc(OC)c(OC)c(OC)c3)NC(=S)N2)c(OC)c1 (stereo not drawn)	29.6	–	–	–	20.3	46.6	–	–	–	–	–	–	–
COc1cc(C2=CC(c3cc(OC)c(OC)c(OC)c3)NC(=S)N2)cc(OC)c1OC (stereo not drawn)	29.3	–	–	–	24.8	46.6	–	–	–	–	–	–	–
COc1ccc(C2C=C(c3cc(OC)c(OC)c(OC)c3)NC(=S)N2)cc1O (stereo not drawn)	49.2	–	–	–	21.5	12.1	–	–	–	–	–	–	Active
COc1ccc(OC)c(C2=CC(c3cc(OC)ccc3OC)NC(=S)N2)c1 (stereo not drawn)	27.3	27.9	> 100	> 100	> 100	18	–	–	–	–	–	–	–

Now those with a lower IC50 (Trypanosoma lewisi), led by results:

IC50 (Trypanosoma lewisi) [µM]	IC50 (Plasmodium falciparum) [µM]	SMILES	IC50 (B16) [µM]	IC50 (L1210) [µM]	IC50 (Giardia intestinalis [1]) [µM]	IC50 (Leishmania tarentolae) [µM]	Ratio IC50 [2]	selectivity ratio [3]	selectivity ratio [4]	selectivity ratio [5]	Ratio IC50 [6]	selectivity ratio [7]	Activity (Giardia intestinalis [8])
25	17.3	COc1cc(OC)c(C2C=C(c3cc(OC)ccc3OC)NC(=S)N2)c(OC)c1 (stereo not drawn)	–	–	33.8	10.4	–	–	–	–	–	–	–
24.3	–	COc1cccc(C2C=C(c3cc(OC)c(OC)c(OC)c3)NC(=S)N2)c1 (stereo not drawn)	–	–	40.4	19.4	–	–	–	–	–	–	–
17.9	14.5	COc1ccc(C2C=C(c3cc(OC)c(OC)c(OC)c3)NC(=S)N2)cc1 (stereo not drawn)	36	41	22.3	12.5	–	–	–	–	–	–	–
16.5	69.4	COc1ccc(C2C=C(c3cc(OC)ccc3OC)NC(=S)N2)cc1 (stereo not drawn)	80	87	> 100	11.4	–	–	–	–	–	–	–
15.7	13.3	COc1ccc(OC)c(C2=CC(c3cc(OC)c(OC)c(OC)c3)NC(=S)N2)c1 (stereo not drawn)	0.5	6	> 100	16.8	–	–	–	–	–	–	–
15.2	25	COc1ccc(C2=CC(c3ccc(OC)cc3)NC(=S)N2)cc1 (stereo not drawn)	> 100	> 100	–	17.8	–	–	–	–	–	–	–
13.4	14.6	COc1ccc(C2=CC(c3c(OC)cc(OC)cc3OC)NC(=S)N2)cc1 (stereo not drawn)	25	85	> 100	25.1	–	–	–	–	–	–	–
